From PubChem BioAssay (NCI) come the findings set out here.

Assay in all cases: NCI-60 cell line screen, 48 h
Assay [1] relates to OVCAR-3 ovarian.
Assay [2] relates to OVCAR-5 ovarian.
Assay [3] relates to OVCAR-8 ovarian.
Assay [4] relates to SF-539 CNS.
For assay [5], the system named is SK-MEL-2 melanoma.
In assay [6] the test system is SN12C renal.
Assay [7] concerns SNB-19 CNS.
In assay [8] the test system is SNB-75 CNS.
Assay [9] relates to TK-10 renal.
Assay [10] concerns K-562 leukemia.

The structures appear in SMILES notation. Where “and” joins values, the source holds several entries; their conditions need not be identical. Equal values may be shown once.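 Step 1: Grow cells in 96-well plates. Step 2: Expose to compound for 48 hours at 5 concentrations. Step 3: Interpolate endpoints linearly; if unreached, use highest concentration. Abbreviation: GI50, concentration required for 50% inhibition of growth. At the TGI there is no net growth.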

As to `COC(=O)Nc1nc2ccc(S(=O)c3ccccc3)cc2[nH]1` (configuration not stated), the GI50 in [1] is 7.39 µM; in assay [2], 9.12 µM; in [3], 14.8 µM; in [4], 4.64 µM; in assay [5] it was 3.29 µM; in assay [6] it was 6.98 µM. In addition, the values for the GI50 in [7], in [8] and in assay [9] were 6.12 µM, 1.75 µM and 12.4 µM, respectively. Further, the TGI in [1] is over 100 µM; in [2], over 100 µM; in [3], over 100 µM; in [4], 58.5 µM; in assay [5] it was over 100 µM; in [6] it was over 100 µM. Moreover, the TGI is over 100 µM in assay [7], 5.75 µM in [8] and over 100 µM in assay [9].

`COc1ccc(-c2cc(=O)c3ccc(O)cc3o2)c(OC)c1OC`: the TGI in [10], in [1], in assay [4], in assay [5], in assay [6] and in [7] was over 100 µM throughout. For the same compound, the TGI in [8] was 71.4 µM; in [9], over 100 µM.

`c1cc2c(cc1NC1=NCCO1)CCC2`: the TGI in assay [10], in [1], in assay [3], in [4], in [5] and in [6] was over 10 µM each time. Moreover, the values for the TGI in assay [7], in assay [8] and in assay [9] were 7.72 µM, over 10 µM and over 10 µM, respectively.

On to `CC1(C)OC(=O)C(=Cc2ccc(O)cc2)C(=O)O1`, for which the TGI in assay [10], in [1], in assay [2], in [3], in assay [4] and in assay [5] was over 100 µM each time. Also, the TGI in [6], in assay [7] and in assay [9] was over 100 µM each time.

Turning to `O=[S@@]1Nc2ccc(Br)cc2S1`, the TGI in assay [10] was over 100 µM; in assay [1], over 100 µM; in [4], over 100 µM; in [5], over 100 µM; in assay [6] it was over 100 µM; in assay [7], 39.3 µM. Further, the TGI in assay [8] and in [9] was over 100 µM throughout.

With `COc1c2ccoc2c(/C=C/C=O)c2oc(-c3ccccc3)cc(=O)c12`, the GI50 in assay [10] is 3.21 µM; in [1], 5.19 µM; in [2] it was 22.3 µM; in assay [3] it was 2.86 µM; in [4], 3.59 µM; in assay [5] it was 10.6 µM. Further, the figures for the GI50 in assay [7] and in [8] were 12 µM and 8.3 µM, respectively. For the same compound, the TGI in assay [10] was over 100 µM; in assay [1] it was 21.7 µM; in assay [2], 63.7 µM; in assay [3], over 100 µM; in assay [4], 16.4 µM; in assay [5] it was over 100 µM. Further, the TGI in assay [7] was over 100 µM; in assay [8], 67.1 µM.

With `CSCCCN(CCCSC)CCCSC`, the TGI in assay [10], in [1], in [2], in [3], in assay [4] and in assay [6] was over 100 µM throughout. For the same compound, the TGI in assay [7] and in assay [8] was over 100 µM in each case.

On to `CC1=C(C(=O)Nc2ccccc2C)C(c2ccco2)C(C(=O)Nc2ccccc2C)=C(C)N1C`, for which the TGI in [10], in [1], in assay [2], in [3], in assay [4] and in assay [5] was over 100 µM throughout. The TGI in assay [6], in assay [7] and in assay [9] was over 100 µM each time.

`CC(=O)NC1=C(NCC(C)(C)C)C(=O)c2ccccc2C1=O`: the TGI in [10], in assay [1], in [3], in assay [4], in assay [5] and in assay [6] was over 100 µM in each case. For the same compound, the TGI in assay [7], in assay [8] and in assay [9] was over 100 µM each time.

On to `COC(=O)[C@@H](C)C[C@H](Cc1ccc(F)cc1)NC(=O)c1csc([C@@H](C[C@H](C(C)C)N(C)C(=O)[C@@H](NC(=O)[C@H]2CCCCN2C)C(C)C)OC(C)=O)n1`, for which the TGI in [10] is over 16.7 µM; in [1], 0.00216 µM and 0.012 µM; in assay [2] it was over 16.7 µM; in [3], over 16.7 µM; in assay [5], over 16.7 µM; in [6], over 16.7 µM. The TGI in assay [7] and in assay [8] was over 16.7 µM in each case. Further, the GI50 is 0.00256 µM and 0.0116 µM in assay [3]; 0.00153 µM and 0.00714 µM in assay [4]; 0.000792 µM and 0.00503 µM in assay [5]; 0.00197 µM and 0.013 µM in [6]; 0.000986 µM and 0.00522 µM in [8].

As for `Nc1ccc(C(=O)N/C(=C\c2ccc3c(c2)OCO3)c2nc3[nH]c(=S)[nH]c(=O)c3[nH]2)cc1`, the TGI in [10], in assay [1], in assay [2], in [3], in [4] and in assay [5] was over 100 µM in each case. The TGI in assay [6], in [7] and in [9] was over 100 µM throughout.

In the case of `CC(C)=CCCc1c(C)ccc2c1C(=O)C(=O)C(C(C)C)=C2`, the TGI was 8.08 µM in [10]; 7.36 µM in [1]; 7 µM in [3]; 8.84 µM in assay [4]; 8.14 µM in assay [5]; over 22 µM in [6]. In addition, the values for the TGI in assay [7], in [8] and in assay [9] were over 22 µM, over 22 µM and 8.81 µM, respectively.

`COc1cccc(NC(=O)CC(=O)n2nc(C)c(N=Nc3ccccc3)c2C)c1`: the TGI in [1], in assay [3], in [4], in [6], in assay [7] and in [8] was over 100 µM in each case. The TGI in assay [9] was over 100 µM.
